Assay results published in US7491533B2, “Polynucleotides encoding an isolated β-islet cell two-pore domain potassium channel” (Metabolex, Inc., priority 2002, dated 2009).

Biological target: T1, BIK channels (Homo sapiens, UniProt Q96T55, A277E)
T1 construct: expressed in transfected cells
T1 sequence (Q96T55 1-294 isoform Q96T55-3 A277E): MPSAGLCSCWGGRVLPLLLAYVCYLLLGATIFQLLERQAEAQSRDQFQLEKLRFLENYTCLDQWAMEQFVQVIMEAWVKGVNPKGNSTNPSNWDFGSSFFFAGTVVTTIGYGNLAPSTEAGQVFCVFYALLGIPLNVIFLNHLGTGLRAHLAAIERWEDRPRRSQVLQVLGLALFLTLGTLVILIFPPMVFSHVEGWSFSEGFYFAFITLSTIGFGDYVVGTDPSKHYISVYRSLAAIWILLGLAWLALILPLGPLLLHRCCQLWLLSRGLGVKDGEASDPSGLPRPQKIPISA
Assay: FlexStation / FLIPR Membrane Potential Dye assay in stable HEK293 transfectants
Assay type: cell-based
Experimental: HEK293 cells stably transfected with pcDNA3.1 (circles) or the same vector allowing expression of BIK (squares) or TASK-2 (triangles) were plated in 96 well assay plates 24 h prior to analysis. Cells were incubated in 100 μl of 0.5×FLIPR Membrane Potential Dye (Molecular Devices) for 30 min. Methanadamide dilutions in DMSO were added to the wells by a FlexStation device (Molecular Devices), the fluorescence intensity changes were recorded before, during and after addition of the compound. The fluorescence intensity changes are plotted as the percent increase from the basal value recorded prior to compound addition. The values are the mean and range of duplicate wells. Similar results were obtained in three other independent experiments.
High level expression of a background/leak potassium channel such as BIK in fibroblasts results in hyperpolarization of the plasma membrane. Further, monitoring the membrane potential of these cells provides an assay for detecting small molecule blockers of BIK. We made stable HEK293 cell lines expressing BIK (and the well characterized background channel TASK2 for comparison) and characterized them using a FLIPR Membrane Potential Dye and FlexStation microplate fluorometer. […] Furthermore, BIK and TASK2 cells display a 3 to 5-fold greater change in fluorescence upon depolarization with 30 mM KCl compared to vector transfected stable cell lines. […]

CCCCC/C=C\C/C=C\C/C=C\C/C=C\CCCC(=O)N[C@H](C)CO [Methanandamide]
selectivity of BIK channel inactivation (result in words) (HEK293 stably transfected with pcDNA3.1, BIK or TASK-2, fluorescence change as percent increase from basal): partially selective inactivator of BIK | fold greater increase in fluorescence (depolarization) in BIK cells than in TASK2 or vector control cells (compound at 100 μM, HEK293 cells stably expressing BIK vs TASK2 or vector (pcDNA3.1)): 3 fold
